In US9115144B2, “Fused heterocyclic derivative and pharmaceutical use thereof” (KISSEI PHARMACEUTICAL CO., LTD., priority 2011, dated 2015):

Key:
[1] = biological target: Xanthine oxidase (from bovine milk, Sigma) (Bos taurus (Bovine), UniProt P80457); test: Xanthine oxidase inhibitory activity; type: biochemical; settings: xanthine 200 μM added at 100 μL/well, 10 minutes at room temperature, absorbance at 290 nm
Procedure: Xanthine Oxidase Inhibitory Activity
(1) Preparation of Test Compounds
Test compounds were dissolved in dimethyl sulfoxide (DMSO) (manufactured by Wako pure chemical) at 40 mM concentration and then diluted to intended concentrations with phosphate-buffered saline (PBS).
(2) Method for Measurement
Xanthine oxidase (from bovine milk, Sigma) was prepared with phosphate-buffered saline (PBS) at 0.02 units/mL, and then the solution was added to 96 well plates at 50 μL/well. In addition, test compounds diluted with PBS were added at 50 μL/well. Xanthine (manufactured by Wako pure chemical) at 200 μM prepared with PBS was added at 100 μL/well, and the reaction was conducted for 10 minutes at room temperature. Absorbance at 290 nm was measured by using a microplate reader SpectraMax Plus 384 (manufactured by Molecular device). The absorbance under a condition without xanthine is 0%, and control without test compounds is 100%. Fifty % inhibitory concentration of a test compounds (IC50) was calculated (Table 5). “Ex. No.” in the table indicates Example number.

human URAT1 = human URAT1 (Homo sapiens (Human), UniProt Q96S37); test: Inhibitory activity of uric acid transport with human URAT1 expressing cells; type: cell-based; settings: 10 μM test compound; URAT1-expressing HEK293 cells; 14C uric acid 50 μM, 2 minutes at 37° C.; read-out: Percent inhibition of uric acid uptake
Procedure: Inhibitory Activity of Uric Acid Transport with Human URAT1 Expressing Cells
(1) Cells Used in the Test
URAT1-expressing HEK293 cells (HEK293 cells transfected with vector containing human URAT1 cDNA) and control cells (HEK293 cells transfected with vector alone) were used.
URAT1-expressing cells and control cells were seeded in collagen I-coated 24-well plates (manufactured by Becton, Dickinson and Company) at 1 to 4×10^5 cells/well, and cultured in CO2 incubator (37° C., CO2: 5%) for 1 to 3 days, and then the following measurement of uric acid transport was conducted. […]
After the medium was removed from the plates in which cells were seeded, and 1 mL of HBSS was added to the cells. […] The radioactivity was measured by means of a liquid scintillation counter. […]
Protein concentration in the cell lysates was determined by BCA Protein Assay Kit (manufactured by Pierce) and then amount of protein (mg/well) was calculated. […]
Uric acid uptake activity in each well was calculated by the following formula. Uric acid uptake activity (p mol/mg protein)=radioactivity (dpm/well)/[amount of protein (mg/well)×concentration of radioactivity in HBSS containing ^14C uric acid (dpm/p mol)]
Percent inhibition was calculated according to the following formula. […]

Xanthine oxidase (from bovine milk, Sigma), sequence (P80457 whole entry): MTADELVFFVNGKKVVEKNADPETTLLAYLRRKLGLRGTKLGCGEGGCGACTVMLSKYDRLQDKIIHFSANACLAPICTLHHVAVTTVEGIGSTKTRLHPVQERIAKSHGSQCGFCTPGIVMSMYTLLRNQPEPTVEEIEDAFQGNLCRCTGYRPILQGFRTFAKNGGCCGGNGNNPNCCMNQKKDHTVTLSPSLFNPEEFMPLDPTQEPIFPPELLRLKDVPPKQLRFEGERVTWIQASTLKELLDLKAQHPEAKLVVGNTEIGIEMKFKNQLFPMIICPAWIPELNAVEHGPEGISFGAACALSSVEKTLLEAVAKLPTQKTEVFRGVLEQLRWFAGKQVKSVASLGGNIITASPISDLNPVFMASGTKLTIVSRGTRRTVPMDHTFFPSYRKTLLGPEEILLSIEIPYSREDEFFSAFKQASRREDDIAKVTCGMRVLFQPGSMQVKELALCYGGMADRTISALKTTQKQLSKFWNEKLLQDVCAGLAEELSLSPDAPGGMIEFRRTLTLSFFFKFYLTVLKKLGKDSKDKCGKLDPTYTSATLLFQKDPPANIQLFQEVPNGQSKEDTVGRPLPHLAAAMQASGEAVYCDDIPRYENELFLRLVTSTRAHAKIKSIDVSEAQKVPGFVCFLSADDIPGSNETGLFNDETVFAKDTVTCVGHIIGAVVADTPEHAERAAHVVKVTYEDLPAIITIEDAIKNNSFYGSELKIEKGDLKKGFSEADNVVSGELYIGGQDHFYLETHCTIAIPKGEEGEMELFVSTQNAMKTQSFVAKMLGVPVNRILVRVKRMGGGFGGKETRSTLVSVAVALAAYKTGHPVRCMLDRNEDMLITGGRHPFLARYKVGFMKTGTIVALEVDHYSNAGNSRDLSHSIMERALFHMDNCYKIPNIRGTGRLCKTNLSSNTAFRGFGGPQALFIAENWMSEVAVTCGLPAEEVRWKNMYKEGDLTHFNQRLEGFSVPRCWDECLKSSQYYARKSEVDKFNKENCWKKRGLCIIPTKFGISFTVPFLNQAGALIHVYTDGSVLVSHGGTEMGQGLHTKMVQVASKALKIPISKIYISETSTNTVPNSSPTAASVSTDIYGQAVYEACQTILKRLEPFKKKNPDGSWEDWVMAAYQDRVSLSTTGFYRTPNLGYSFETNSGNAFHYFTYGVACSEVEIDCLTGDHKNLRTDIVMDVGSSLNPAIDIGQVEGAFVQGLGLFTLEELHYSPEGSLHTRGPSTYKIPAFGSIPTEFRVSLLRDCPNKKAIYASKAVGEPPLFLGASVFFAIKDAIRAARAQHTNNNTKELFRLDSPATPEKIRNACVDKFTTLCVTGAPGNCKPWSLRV
human URAT1, sequence (Q96S37 whole entry): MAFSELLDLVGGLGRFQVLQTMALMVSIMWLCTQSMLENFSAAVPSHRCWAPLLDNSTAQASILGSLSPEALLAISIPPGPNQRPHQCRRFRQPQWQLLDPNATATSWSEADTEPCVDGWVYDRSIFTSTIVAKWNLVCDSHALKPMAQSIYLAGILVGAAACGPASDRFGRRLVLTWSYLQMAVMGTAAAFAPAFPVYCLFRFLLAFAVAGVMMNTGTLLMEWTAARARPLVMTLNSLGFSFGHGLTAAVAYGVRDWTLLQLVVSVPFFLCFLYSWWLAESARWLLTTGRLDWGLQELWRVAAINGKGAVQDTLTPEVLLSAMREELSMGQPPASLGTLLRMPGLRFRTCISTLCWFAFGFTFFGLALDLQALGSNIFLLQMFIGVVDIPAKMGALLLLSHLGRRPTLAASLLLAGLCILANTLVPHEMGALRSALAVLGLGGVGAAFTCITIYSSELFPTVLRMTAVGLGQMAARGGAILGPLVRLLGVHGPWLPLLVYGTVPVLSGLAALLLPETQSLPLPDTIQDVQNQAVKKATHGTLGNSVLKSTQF

Structure (SMILES)	IC50 [1] [nM]	inhibition at 10 µM (human URAT1) [%]
N#Cc1cn(-c2ccc(C(=O)O)c(O)c2)c2cscc12 [Example 7]	10	–
Cc1cc2c(s1)c(C#N)cn2-c1ccc(C(=O)O)c(O)c1 [Example 1, 4-(6-Cyano-2-methyl-thieno[3,2-b]pyrrol-4-yl)-2-hydroxybenzoic acid]	13	–
N#Cc1cn(-c2ccc(C(=O)O)c(O)c2)c2sc(Br)cc12 [Example 8]	14	–
N#Cc1cn(-c2ccc(C(=O)O)c(O)c2)c2ccsc12 [Example 5, 4-(6-Cyano-thieno[3,2-b]pyrrol-4-yl)-2-hydroxybenzoic acid]	10	–
N#Cc1cn(-c2ccc(C(=O)O)c(O)c2)c2sccc12 [Example 9]	13	≥ 50
